The test system of data set [1] is rhesus monkeys. Put plainly: Operant responding assay (self-administration). The class given is in vivo. The source says:
(§1) These findings illustrate the safe and favorable profile of 11.

Data set [2] has as its system rhesus monkeys. Put plainly: Physiological functions of monkeys (respiration, heart rate, blood pressure). In kind it is in vivo. The settings on record: 0.01 mg/kg s.c.
Source text: as §1

The target of the next data set is T1, KOP (Homo sapiens, UniProt P41145).
T1 construct: expressed in transfected cells; host or cells: CHO cells (membranes)
T1 sequence (P41145 whole entry): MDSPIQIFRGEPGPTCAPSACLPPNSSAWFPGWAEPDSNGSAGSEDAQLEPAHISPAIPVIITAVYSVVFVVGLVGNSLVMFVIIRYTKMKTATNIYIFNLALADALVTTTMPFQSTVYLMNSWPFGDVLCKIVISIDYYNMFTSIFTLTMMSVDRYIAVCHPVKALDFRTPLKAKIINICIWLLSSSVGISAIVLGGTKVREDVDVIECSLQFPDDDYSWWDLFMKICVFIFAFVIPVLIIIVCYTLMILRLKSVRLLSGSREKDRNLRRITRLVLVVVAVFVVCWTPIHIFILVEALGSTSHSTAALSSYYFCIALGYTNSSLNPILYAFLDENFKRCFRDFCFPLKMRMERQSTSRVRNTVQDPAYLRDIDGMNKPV
Put plainly: biochemical. The class given is binding. The settings on record: [3H]U69593, membranes of CHO cells with human receptor.

The target in data set [3] is T2, MOP (Homo sapiens, UniProt P35372).
T2 construct: expressed in transfected cells; host or cells: CHO cells (membranes)
T2 sequence (P35372 whole entry): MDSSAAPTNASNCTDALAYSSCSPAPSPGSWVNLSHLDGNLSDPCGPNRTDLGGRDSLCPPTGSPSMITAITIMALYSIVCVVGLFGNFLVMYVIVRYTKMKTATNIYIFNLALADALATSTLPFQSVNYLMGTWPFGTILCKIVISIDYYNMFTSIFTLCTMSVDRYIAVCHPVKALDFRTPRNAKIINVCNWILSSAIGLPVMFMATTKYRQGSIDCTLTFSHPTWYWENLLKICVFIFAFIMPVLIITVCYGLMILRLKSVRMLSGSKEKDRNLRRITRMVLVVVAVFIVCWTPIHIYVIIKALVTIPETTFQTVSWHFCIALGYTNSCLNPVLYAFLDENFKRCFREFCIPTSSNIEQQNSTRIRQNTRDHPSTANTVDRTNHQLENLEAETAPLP
Put plainly: [35S]GTPγS binding, MOP. In kind it is biochemical. The conditions noted are these: 1 h; read-out: % stim MOP. The procedure:
(§2) [^35S]GTPγS binding was conducted basically as described by Traynor and Nahorski (Traynor et al., 1995). Cells were scraped from tissue culture dishes into 20 mM Hepes, 1 mM EDTA, then centrifuged at 500×g for 10 min. Cells were resuspended in this buffer and homogenized using a Polytron Homogenizer. The homogenate was centrifuged at 27,000×g for 15 min, and the pellet re suspended in Buffer A, containing: 20 mM Hepes, 10 mM MgCl2, 100 mM NaCl, pH 7.4. The suspension was re centrifuged at 27,000×g and suspended once more in Buffer A. For the binding assay, membranes (8-15 μg protein) were incubated with [^35S]GTPγS (50 pM), GDP (10 μM), and the appropriate compound, in a total volume of 1.0 ml, for 60 min at 25′C. Samples were filtered over glass fiber filters and counted as described for the binding assays. Statistical analysis was conducted using the program Prism®.

The subject of data set [4] is carrageenan-induced thermal hyperalgesia. Put plainly: Carrageenan-induced thermal hyperalgesia (paw withdrawal latency). The class given is in vivo. The method, then: Compound 11 was tested for its effect on carrageenan-induced thermal hyperalgesia measured by paw withdrawal latency (FIG. 1a) and anti-hyperalgesic effect (FIG. 1b).
Data set [5] has as its system rhesus monkeys. Put plainly: Scratching responses and sedation after intrathecal administration. In kind it is in vivo. The conditions noted are these: intrathecal 3 μg.
Source text: as §1

The target of data set [6] is T2, MOP. Nature of the data set: biochemical. In kind it is binding. The settings on record: [3H]DAMGO, membranes of CHO cells with human receptor.
In data set [7] the test system is rhesus monkeys. Nature of the data set: Antinociception against acute noxious stimulus (50° C. water). In kind it is in vivo.
Source text: as §1

Data set [8] addresses T3, NOP (Homo sapiens, UniProt P41146).
T3 construct: expressed in transfected cells; host or cells: CHO cells (membranes)
Nature of the data set: Binding affinity to human NOP receptor transfected into CHO cells ([3H]N/OFQ).

The target of data set [9] is T3, NOP. Nature of the data set: [35S]GTPγS binding, NOP. The settings on record: 1 h; read-out: % stim NOP. The class given is biochemical. The procedure: as §2
In another data set the target is T4, KOPr (Homo sapiens, UniProt P41145).
T4 construct: expressed in transfected cells
T4 sequence (P41145 whole entry): as the sequence (P41145 whole entry) above
Put plainly: [35S]GTPγS binding, KOPr. In kind it is biochemical. The procedure: as §2
(GTPγS resists hydrolysis and so accumulates on activated G proteins.)

T3 sequence (P41146 whole entry): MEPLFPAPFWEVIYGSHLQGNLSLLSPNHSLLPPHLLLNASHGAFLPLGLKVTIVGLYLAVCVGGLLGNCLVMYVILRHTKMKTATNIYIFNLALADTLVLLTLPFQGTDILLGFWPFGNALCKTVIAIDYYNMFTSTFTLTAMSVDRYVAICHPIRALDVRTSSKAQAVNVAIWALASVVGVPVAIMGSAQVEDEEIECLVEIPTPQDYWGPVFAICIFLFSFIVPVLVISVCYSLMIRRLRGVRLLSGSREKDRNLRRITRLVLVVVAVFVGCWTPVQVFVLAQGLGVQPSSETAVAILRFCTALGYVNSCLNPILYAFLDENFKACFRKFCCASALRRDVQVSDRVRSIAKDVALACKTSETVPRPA

As to `O=C(CCc1ccccc1)O[C@@]12CCC(=O)[C@@H]3Oc4c(O)ccc5c4[C@@]31CCN(CC1CC1)C2C5` [Compound 11, 14β-Phenylpropanoyl-17-cyclopropylmethyl-7,8-dihydronoroxymorphinone], in the data set with rhesus monkeys [1], the “self-administration (abuse liability)” value is recorded as “did not self-administer”. Moreover, the bradycardia and hypotension entry with rhesus monkeys [2] is “no bradycardia and hypotension”. Moreover, in the data set with rhesus monkeys [2], the respiratory depression entry is given as “no respiratory depression”. For the same compound, the inhibitory constant (Ki) – broadly, the equilibrium dissociation constant of an inhibitor or competing ligand from its target – on KOP worked out at 10.5 ± 0.17 nM; at MOP [6], 0.86 ± 0.23 nM; on NOP [8] it was 14.8 ± 0.94 nM. The Emax on MOP [3] was found to be 18%; at NOP [9], 34%. Moreover, in data set [4] (J113397 pretreatment), the “reversal of 11-induced reversal of thermal hyperalgesia by pretreatment with NOP receptor antagonist J113397” value was “partially reverse”. The “effect on carrageenan-induced thermal hyperalgesia (paw withdrawal latency, anti-hyperalgesic effect)” value in data set [4] (intrathecal) is “efficacious and long acting”. For the same compound, in data set [4] (naltrexone pretreatment), the “reversal of 11-induced reversal of thermal hyperalgesia by pretreatment with MOP receptor antagonist naltrexone” value is recorded as “partially reverse”. For the same compound, the scratching responses entry in the data set on rhesus monkeys [5] is on record as “without eliciting scratching responses”. The signs of sedation result in the data set with rhesus monkeys [5] (during test period) is “did not show any signs of sedation”. Besides, the antinociceptive effect result with rhesus monkeys [7] (0.01 mg/kg s.c., rhesus monkeys) is given as “full antinociceptive effects”; with rhesus monkeys [7] (intrathecal 3 μg, monkeys) it was “full antinociceptive effects”. Also, the “duration of full antinociceptive effects” value in the data set with rhesus monkeys [7] (intrathecal 3 μg, monkeys) is 24 h. The same compound displayed a duration of antinociception with rhesus monkeys [7] (s.c. 0.001-0.01 mg/kg, rhesus monkeys) of approximately 24 h. Further, the “antinociception against acute noxious stimulus (50° C. water)” value in the data set with rhesus monkeys [7] (s.c. 0.001-0.01 mg/kg, rhesus monkeys, pilot experiments) was “dose-dependently produced long lasting antinociception”. Besides, the “stimulation of the KOPr” value on KOPr was “no stimulation”.

Values taken from patent US9969746B2, “Opioid compounds and their uses” (THE UNIVERSITY OF BATH, priority 2013, dated 2018).
